Reference: PMC10406726, “Development, scrutiny, and modulation of transient reporter gene assays of the xenobiotic metabolism pathway in zebrafish hepatocytes” (Cell Biology and Toxicology, 2021)
Like-named read-outs stand apart in the source and are kept apart here.

Key:
Assay type in all cases: cell-based, zebrafish (Danio rerio)
ZFL cells = assay: MTS/BCA-multiplex viability assay on transiently transfected ZFL cells
Description: In parallel to the DLR assays, MTS/BCA-multiplex assays were conducted on identically treated cells. The MTS/BCA-multiplex assay, which is described in detail in (Lungu-Mitea et al. [2021]), scores NADPH-turnover and total protein amount as apical endpoints of cell viability or cytotoxicity. After 24 h exposure, the spiked nutrition medium was discharged, cells were washed once in 100 µL/well PBS, and 100 µL/well Earle’s Balanced Salt Solution (EBSS; Gibco, Paisley, UK) was added. MTS-based CellTiter 96® AQueous One Solution Cell Proliferation Assay (Promega, Madison, USA) was conducted following the manufacturer’s protocol. Seventeen percent (v/v) MTS reagent were added to the wells. After 2 h of incubation at 28 °C and atmospherical CO2, formazan product turnover absorbance was measured at 490 nm using an Infinite M1000 microplate reader. Afterwards, EBSS and MTS reagents were removed. Cells were washed once in 100 µL/well PBS and lysed in 20-µL PLB at RT for 30 min. Bicinchoninic Acid Protein Assay (BCA, Sigma-Aldrich, St. Louis, USA) was conducted following the manufacturer’s protocol. One hundred eighty microliters of BCA-reagent was added to every well, plates were agitated shortly, and incubated for 20 min at 60 °C. After cooling down for 15 min at RT, absorbance was measured at 562 nm using an Infinite M1000 microplate reader.
(§1) In terms of the NOEC/LOEC analyses, for both approaches (DLR and viability), mean background values (blanks) were subtracted from the raw values, and the data was computed as fold induction in relation to the negative controls. Means of every experiment were pooled (experimental unit n = 3–5; observational unit N = 9–15). Normality was tested by Shapiro–Wilk and Kolmogorov–Smirnov tests (both significance level alpha = 0.05) and analyzed graphically via normal-qq-plot. Non-normal data were log-transformed and re-analyzed. Given normality, statistically differing significance in the output signal from the negative controls was assessed via one-way ANOVA, followed by Dunnett’s post hoc test (for multiple comparisons vs. control). Residuals were graphically analyzed by quantile–quantile plot (actual vs. predicted residuals), homoscedasticity plot (absolute residuals vs. fitted), and residual plot (residuals vs. fitted) to ensure ANOVA criteria were met. Further, Brown–Forsythe and Bartlett’s tests were conducted to check for the residuals’ homoscedasticity and normality. Beyond statistical significance, for all viability tests, a threshold of 80% as compared to the negative control (corresponding 0.8) was determined as biologically significant and marked with a dotted red line within all respective graphs.

[1] = tested on: AhR transcription factor activation (AhR/ARNT/XRE pathway); assay: AhR-responsive transient dual luciferase reporter gene (DLR) assay in ZFL cells; conditions: for EC20 (normalized): 4PL regression
Description: (§2) ZFL cells were seeded either into white, clear-bottom 96-well microtiter plates (Corning, New York, USA; for DLR assays) or transparent 96-well microtiter plates (Corning, New York, USA; for viability assays) at a density of 1.5 × 10^5 cells/mL, in 100 μL/well. After 24 h of incubation, cells reached a confluence of about 80%.
(§3) The transient transfection was conducted in a 2-μg transfection reagent to 1 μg plasmid DNA ratio, applying the XHP transfection reagent (Roche, Mannheim, Germany). Specific transfection optimization experiments were reported priory (Lungu-Mitea et al. [2018]). The transient transfection reaction was incubated as a co-transfection in a 10:1 reporter to control ratio (0.9 μg reporter plasmid, 0.1 μg control plasmid) for 30 min, before adding the reaction mixture to the cells. Firefly luciferase-bearing vectors were used as the primary reporter plasmids, and Renilla luciferase-bearing vectors were used for normalization (control plasmid). Ten microliter per well of the transfection reaction mix was added to the cells and incubated for 24 h. Following (Lungu-Mitea and Lundqvist [2020]), cells used in both DLR and viability assays were transiently transfected.
(§4) Prepared aliquots of stock solutions were thawed and further titrated using the nutrition medium supplemented with 5‰ (v/v) DMSO as a solvent. […] Different exposure regimes were applied. […] All potential co-transfection combinations were screened in this initial approach. […] Further, cells transfected with candidate plasmid combinations were subjected to a TCDD exposure regime from 100 pM to 100 nM (0.1, 0.3, 1, 3, 10, 30, 100 nM). Cells were exposed in 100 μL/well of the specifically spiked nutrition medium. Solvent controls (negative controls) were conducted in six replicates for every specific experiment.
(§5) After 24 h of exposure to AhR-agonists, cells on white 96-well microtiter plates were lysed in 20-μL passive lysis buffer (PLB; Promega, Madison, USA), and quantitative AhR-dependent luminescence was measured via Dual-Luciferase® Reporter Assay (DLR; Promega, Madison, USA), according to the manufacturer’s protocol using an auto-injecting Infinite M1000 microplate reader (Tecan, Männedorf, Switzerland), following a flash luminescence protocol. The luciferase activity was normalized to transfection efficiency (Firefly raw light unit readout divided by Renilla raw light unit readout) and further expressed as fold change compared to the non-treated controls.
as §1, with “graphs. […]” for “graphs.”

[2] = tested on: AhR (AhR/ARNT/XRE pathway); assay: as above; conditions: zebrafish; for IC50 / EC50: BNF exposure; for EC50 at 24 h: TCDD exposure, 4PL regression
Description: as §2, §3, §4, §5
as §1, with “graphs. […]” for “graphs.”

SMILES: O=c1cc(-c2ccccc2)oc2ccc3ccccc3c12 [BNF, β-naphthoflavone]
- statistically significant cytotoxicity (ZFL cells; BNF 3-300 nM, pGL4.43 with any viral promoter-bearing vector (Fig. S3)): No statistically significant cytotoxicity
- cytotoxicity by biological threshold (0.8) (ZFL cells; BNF highest exposure concentration, pGL4.43 + pRL-SV40 and pRL-CMV, at least one endpoint (Fig. S3D + F)): depicted cytotoxicity by biological threshold definition
- cytotoxicity (statistical or biological significance) (ZFL cells; BNF highest exposure concentration, pGudluc7.5 + CMV and SV40-bearing vectors, at least one apical endpoint (Fig. S4C-F)): Cytotoxicity was recorded
- statistically significant cytotoxicity (MTS and BCA endpoints) (ZFL cells; BNF, entire concentration range up to 1 µM, non-viral promoter setups (Fig. 1)): no statistically significant cytotoxicity
- effect on AhR-related signal ([1]; 300 nM BNF, pGudluc7.5 with non-viral promoter normalization vectors (Fig. 1C + D)): statistically significant inhibition
- maximum induction of AhR-related luminescence ([1]; BNF at 10 nM, pGL4.43 + pRL-null[zfEF1aPro] (Fig. S5)): 3.9 fold
- LOEC ([1]; BNF exposure, pGL4.43 + pRL-null[zfEF1aPro] (Fig. S5)): 3 nM
- EC50 ([1]; BNF exposure, setup (a) pGL4.43 + pGL4.70, bell-shaped regression, normalized induction): 2.95 nM
- induction of AhR-related luciferase signal ([1]; BNF screening, co-transfection with pGudluc7.5 (Figs. 1C + D, 2, S4)): no overall statistically significant induction
- induction of AhR-related luciferase response ([1]; BNF screening, pGL4.43 + pGL4.74, pGL4.43 + pRL-SV40, pGL4.43 + pGL4.73 (viral promoters)): 1.5- to threefold

SMILES: Clc1cc2c(cc1Cl)Oc1cc(Cl)c(Cl)cc1O2 [TCDD, 2,3,7,8-tetrachlorodibenzo-p-dioxin]
- cytotoxicity (MTS) (ZFL cells; TCDD 0.1-100 nM, pGudluc7.5 + pRL-null[zfEF1aPro] (Fig. S7)): none
- LOEC ([1]; TCDD exposure 24 h, setup (d) pGL4.43 + pRL-null[zfEF1aPro]): 0.1 nM
- LOEC ([1]; TCDD exposure 24 h, setup (e) pGudLuc7.5 + pRL-null): 1 nM
- LOEC ([1]; TCDD exposure 24 h, setup (f) pGudLuc7.5 + pGL4.70): 1 nM
- EC20, all co-transfection setups ([1]; TCDD exposure, all recorded within this range): ~0.2 nM
- plateau of relative induction ([1]; TCDD exposure, pGudluc7.5 + pRL-null[zfEF1aPro] (Fig. 5A)): approximately 26 fold
- EC20 (normalized) ([1]; TCDD exposure, setup (d) pGL4.43 + pRL-null[zfEF1aPro]): 0.282 nM
- EC20 (normalized) ([1]; TCDD exposure, setup (e) pGudLuc7.5 + pRL-null): 0.245 nM
- EC20 (normalized) ([1]; TCDD exposure, setup (f) pGudLuc7.5 + pGL4.70): 0.204 nM
- EC50 at 24 h ([2]; setup (a) pGL4.43 + pGL4.70, read-out: EC50 (normalized)): 0.612 nM
- EC50 at 24 h ([2]; setup (a) pGL4.43 + pGL4.70, read-out: EC50 (relative; non-normalized)): 0.595 nM
- EC50 at 24 h ([2]; setup (b) pGL4.43 + pRL-null, read-out: EC50 (normalized)): 2.7 nM
- EC50 at 24 h ([2]; setup (b) pGL4.43 + pRL-null, read-out: EC50 (relative; non-normalized)): 1.31 nM
- EC50 at 24 h ([2]; setup (c) pGudLuc7.5 + pRL-null[zfEF1aPro], read-out: EC50 (normalized)): 1.15 nM
- EC50 at 24 h ([2]; setup (c) pGudLuc7.5 + pRL-null[zfEF1aPro], read-out: EC50 (relative; non-normalized)): 1.13 nM
- EC50 at 24 h ([2]; setup (d) pGL4.43 + pRL-null[zfEF1aPro], read-out: EC50 (normalized)): 1.45 nM
- EC50 at 24 h ([2]; setup (d) pGL4.43 + pRL-null[zfEF1aPro], read-out: EC50 (relative; non-normalized)): 0.877 nM
- EC50 at 24 h ([2]; setup (e) pGudLuc7.5 + pRL-null, read-out: EC50 (normalized)): 0.661 nM
- EC50 at 24 h ([2]; setup (e) pGudLuc7.5 + pRL-null, read-out: EC50 (relative; non-normalized)): 0.685 nM
- EC50 at 24 h ([2]; setup (f) pGudLuc7.5 + pGL4.70, read-out: EC50 (normalized)): 1.26 nM
- EC50 at 24 h ([2]; setup (f) pGudLuc7.5 + pGL4.70, read-out: EC50 (relative; non-normalized)): 1.07 nM
